Reference: ChEMBL document CHEMBL1158305, “Bastadin 20 and bastadin O-sulfate esters from Ianthella basta: novel modulators of the Ry1R FKBP12 receptor complex” (J Nat Prod, 1996)

Biological target: Ryanodine receptor 1 (Oryctolagus cuniculus, UniProt P11716)
Test: Displacement of [3H]ryanodine from Ry1R/FKBP12 receptor complex in rabbit sarcoplasmic reticulum

Sequence of Ryanodine receptor 1 (P11716 whole entry): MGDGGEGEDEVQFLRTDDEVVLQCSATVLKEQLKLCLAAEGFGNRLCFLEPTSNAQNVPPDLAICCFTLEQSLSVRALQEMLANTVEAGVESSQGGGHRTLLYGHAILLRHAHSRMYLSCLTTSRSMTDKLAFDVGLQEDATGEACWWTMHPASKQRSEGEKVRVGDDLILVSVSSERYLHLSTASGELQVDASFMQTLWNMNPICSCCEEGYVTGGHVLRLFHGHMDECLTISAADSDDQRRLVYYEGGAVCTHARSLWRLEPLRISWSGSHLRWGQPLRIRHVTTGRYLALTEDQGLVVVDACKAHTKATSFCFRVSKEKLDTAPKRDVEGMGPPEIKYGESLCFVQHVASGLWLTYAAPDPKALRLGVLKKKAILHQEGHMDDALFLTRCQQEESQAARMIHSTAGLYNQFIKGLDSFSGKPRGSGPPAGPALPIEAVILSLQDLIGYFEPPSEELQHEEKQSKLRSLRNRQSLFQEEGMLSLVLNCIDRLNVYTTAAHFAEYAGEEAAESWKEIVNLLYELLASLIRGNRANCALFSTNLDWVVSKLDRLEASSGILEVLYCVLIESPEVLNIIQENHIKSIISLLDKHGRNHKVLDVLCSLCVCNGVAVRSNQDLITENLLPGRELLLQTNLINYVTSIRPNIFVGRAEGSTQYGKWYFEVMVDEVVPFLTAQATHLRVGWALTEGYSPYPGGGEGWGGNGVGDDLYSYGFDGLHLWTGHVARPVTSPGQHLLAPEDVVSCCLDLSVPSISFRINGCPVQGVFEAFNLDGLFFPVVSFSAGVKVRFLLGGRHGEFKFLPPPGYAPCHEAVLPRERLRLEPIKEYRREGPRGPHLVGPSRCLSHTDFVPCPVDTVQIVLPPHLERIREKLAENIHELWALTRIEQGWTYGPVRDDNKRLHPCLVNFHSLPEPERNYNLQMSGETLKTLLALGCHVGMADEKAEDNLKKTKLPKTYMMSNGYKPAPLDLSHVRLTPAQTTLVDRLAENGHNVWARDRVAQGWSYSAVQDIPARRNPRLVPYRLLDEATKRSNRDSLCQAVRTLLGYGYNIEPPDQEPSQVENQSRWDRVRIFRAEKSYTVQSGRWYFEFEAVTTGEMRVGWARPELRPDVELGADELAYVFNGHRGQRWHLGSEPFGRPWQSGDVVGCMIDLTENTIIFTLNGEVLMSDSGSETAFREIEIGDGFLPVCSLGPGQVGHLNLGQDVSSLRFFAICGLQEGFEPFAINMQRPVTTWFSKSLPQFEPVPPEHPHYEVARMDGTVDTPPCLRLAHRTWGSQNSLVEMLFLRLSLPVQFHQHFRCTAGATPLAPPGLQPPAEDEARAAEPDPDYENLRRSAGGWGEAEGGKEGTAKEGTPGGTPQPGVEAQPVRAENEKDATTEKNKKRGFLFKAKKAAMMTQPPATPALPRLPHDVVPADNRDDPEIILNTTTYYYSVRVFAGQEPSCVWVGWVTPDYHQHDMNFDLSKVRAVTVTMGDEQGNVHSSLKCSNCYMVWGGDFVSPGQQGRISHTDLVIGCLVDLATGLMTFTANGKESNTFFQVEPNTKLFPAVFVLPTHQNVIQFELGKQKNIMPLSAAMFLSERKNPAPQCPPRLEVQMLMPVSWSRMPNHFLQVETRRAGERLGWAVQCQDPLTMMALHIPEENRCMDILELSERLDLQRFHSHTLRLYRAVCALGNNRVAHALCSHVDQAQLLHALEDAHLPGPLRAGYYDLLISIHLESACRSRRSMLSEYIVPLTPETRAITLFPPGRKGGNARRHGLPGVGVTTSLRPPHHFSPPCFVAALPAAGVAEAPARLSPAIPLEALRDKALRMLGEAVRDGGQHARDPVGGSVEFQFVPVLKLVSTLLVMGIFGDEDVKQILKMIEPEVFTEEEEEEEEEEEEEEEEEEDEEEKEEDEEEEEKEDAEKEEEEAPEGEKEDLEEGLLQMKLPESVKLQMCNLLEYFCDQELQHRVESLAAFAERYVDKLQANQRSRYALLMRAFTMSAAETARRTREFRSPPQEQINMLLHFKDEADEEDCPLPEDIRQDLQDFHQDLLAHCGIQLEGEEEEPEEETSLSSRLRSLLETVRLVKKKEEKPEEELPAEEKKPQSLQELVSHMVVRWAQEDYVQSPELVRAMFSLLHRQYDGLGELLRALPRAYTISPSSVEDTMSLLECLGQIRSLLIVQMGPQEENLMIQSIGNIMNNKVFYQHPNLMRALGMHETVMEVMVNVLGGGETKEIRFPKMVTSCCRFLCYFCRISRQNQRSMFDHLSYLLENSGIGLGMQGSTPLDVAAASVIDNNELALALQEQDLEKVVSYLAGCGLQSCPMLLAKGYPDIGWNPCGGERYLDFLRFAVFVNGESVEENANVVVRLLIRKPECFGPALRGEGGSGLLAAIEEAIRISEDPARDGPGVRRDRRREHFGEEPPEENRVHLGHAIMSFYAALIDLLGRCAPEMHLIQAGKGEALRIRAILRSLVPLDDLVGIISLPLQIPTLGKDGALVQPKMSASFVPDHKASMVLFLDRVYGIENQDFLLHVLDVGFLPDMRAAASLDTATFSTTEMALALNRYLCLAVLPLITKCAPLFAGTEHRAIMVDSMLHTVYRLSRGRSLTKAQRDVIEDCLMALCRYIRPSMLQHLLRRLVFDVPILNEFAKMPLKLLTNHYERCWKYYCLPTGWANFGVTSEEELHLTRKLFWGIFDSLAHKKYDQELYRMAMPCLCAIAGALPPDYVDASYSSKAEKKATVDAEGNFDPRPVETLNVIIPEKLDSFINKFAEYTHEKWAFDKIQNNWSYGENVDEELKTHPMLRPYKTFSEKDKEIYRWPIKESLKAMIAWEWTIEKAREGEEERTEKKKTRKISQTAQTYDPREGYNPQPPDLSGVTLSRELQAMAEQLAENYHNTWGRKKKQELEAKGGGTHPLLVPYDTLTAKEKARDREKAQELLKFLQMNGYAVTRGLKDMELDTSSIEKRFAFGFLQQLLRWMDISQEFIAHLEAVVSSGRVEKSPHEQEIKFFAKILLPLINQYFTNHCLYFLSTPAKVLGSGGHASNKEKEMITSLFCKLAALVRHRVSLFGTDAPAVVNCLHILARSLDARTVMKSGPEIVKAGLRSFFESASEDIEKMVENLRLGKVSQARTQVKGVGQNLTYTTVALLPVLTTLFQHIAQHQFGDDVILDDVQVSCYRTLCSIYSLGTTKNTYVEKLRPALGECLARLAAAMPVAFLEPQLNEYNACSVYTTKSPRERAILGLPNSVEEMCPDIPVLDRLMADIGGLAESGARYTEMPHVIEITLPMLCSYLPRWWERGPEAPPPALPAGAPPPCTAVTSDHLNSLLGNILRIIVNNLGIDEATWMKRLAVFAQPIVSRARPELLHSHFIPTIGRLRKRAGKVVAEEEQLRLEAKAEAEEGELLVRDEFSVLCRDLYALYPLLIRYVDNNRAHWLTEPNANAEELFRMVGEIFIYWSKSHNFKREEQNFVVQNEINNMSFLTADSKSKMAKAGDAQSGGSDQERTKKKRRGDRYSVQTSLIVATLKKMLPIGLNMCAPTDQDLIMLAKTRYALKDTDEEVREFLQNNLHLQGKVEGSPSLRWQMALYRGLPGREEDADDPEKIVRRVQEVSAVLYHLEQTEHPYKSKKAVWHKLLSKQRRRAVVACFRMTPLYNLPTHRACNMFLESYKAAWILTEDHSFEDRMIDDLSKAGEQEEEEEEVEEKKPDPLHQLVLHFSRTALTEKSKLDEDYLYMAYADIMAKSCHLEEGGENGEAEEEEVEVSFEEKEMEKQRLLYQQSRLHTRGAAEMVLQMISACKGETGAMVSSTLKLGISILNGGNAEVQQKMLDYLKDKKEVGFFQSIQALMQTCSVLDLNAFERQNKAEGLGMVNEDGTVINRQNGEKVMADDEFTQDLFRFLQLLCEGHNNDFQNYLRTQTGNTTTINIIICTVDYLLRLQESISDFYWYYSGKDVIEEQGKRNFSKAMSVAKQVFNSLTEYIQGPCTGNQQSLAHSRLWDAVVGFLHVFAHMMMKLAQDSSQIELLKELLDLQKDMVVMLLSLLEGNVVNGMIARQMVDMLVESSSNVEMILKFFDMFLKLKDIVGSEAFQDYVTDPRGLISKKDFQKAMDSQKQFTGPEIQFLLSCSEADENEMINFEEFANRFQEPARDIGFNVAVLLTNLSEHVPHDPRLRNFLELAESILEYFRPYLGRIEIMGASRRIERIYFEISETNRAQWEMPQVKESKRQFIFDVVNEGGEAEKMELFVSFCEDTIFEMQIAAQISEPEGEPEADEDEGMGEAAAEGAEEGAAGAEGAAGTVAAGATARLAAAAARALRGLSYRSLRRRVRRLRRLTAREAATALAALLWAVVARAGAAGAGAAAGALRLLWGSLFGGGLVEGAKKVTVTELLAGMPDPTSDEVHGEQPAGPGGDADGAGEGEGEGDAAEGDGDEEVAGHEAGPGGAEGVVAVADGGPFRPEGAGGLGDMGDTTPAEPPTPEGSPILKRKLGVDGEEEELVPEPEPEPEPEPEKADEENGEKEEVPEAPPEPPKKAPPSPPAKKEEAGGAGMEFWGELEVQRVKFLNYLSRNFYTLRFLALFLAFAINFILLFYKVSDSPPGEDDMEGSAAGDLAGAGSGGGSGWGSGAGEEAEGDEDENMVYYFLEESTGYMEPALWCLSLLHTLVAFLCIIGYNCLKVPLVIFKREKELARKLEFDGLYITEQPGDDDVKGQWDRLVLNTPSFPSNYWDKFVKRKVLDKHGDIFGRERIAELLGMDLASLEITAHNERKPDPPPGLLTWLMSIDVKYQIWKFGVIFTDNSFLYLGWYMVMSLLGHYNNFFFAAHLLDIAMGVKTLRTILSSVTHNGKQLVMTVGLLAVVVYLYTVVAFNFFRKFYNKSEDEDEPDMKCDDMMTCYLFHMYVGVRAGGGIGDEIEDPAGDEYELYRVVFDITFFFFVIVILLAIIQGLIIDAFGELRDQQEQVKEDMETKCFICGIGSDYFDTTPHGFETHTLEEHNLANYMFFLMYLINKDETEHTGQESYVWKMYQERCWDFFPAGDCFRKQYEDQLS

Compound | EC50 [µM]
O=C1N/C=C/c2ccc(c(Br)c2)Oc2cc(cc(Br)c2OS(=O)(=O)O)CCNC(=O)/C(=N/O)Cc2ccc(c(Br)c2)Oc2cc(cc(Br)c2OS(=O)(=O)O)C/C1=N\O | 13.6
O=C1NCCc2ccc(c(Br)c2)Oc2cc(cc(Br)c2O)CCNC(=O)/C(=N/O)Cc2cc(Br)c(O)c(c2)Oc2c(Br)cc(cc2Br)C/C1=N\O [BASTADIN 19] | > 100
